This is an account of results in ChEMBL document CHEMBL1201862, “PubChem BioAssay data set” (2004).

Test systems include CCRF-CEM; DU-145; HCT-116; HOP-62; M14; MOLT-4; Malme-3M; NCI-H226; NCI-H460; OVCAR-3; OVCAR-8; PC-3; SK-MEL-5; SN12C; SNB-19; TK-10; U-251; UACC-257; A498; LOX IMVI.
Common to all, as to experiment: NCI-60 cell line screen, 48 h

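Briefly, cells in 96-well plates were exposed to five compound concentrations for 48 h, and endpoints were estimated by linear interpolation. The concentration for 50% growth inhibition is given as GI50.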 The source made the active and inactive calls. Rule as the data show it: active = GI50 up to about 1.1 µM and inactive = higher.

With `COC(=O)c1c(C)c2c(c(C)c1O)OC(=O)c1c(C)cc(O)c(C=O)c1O2`, the GI50 in the assay on CCRF-CEM, with DU-145, in the assay on HCT-116, in the assay with HOP-62, with M14 and in the assay on MOLT-4 was > 100 µM (inactive) each time. For the same compound, the GI50 in the assay on Malme-3M, with NCI-H226, in the assay with NCI-H460, in the assay on OVCAR-3, in the assay on OVCAR-8 and with PC-3 was > 100 µM (inactive) in each case. The GI50 in the assay with SK-MEL-5, in the assay with SN12C, in the assay on SNB-19, in the assay with TK-10, in the assay with U-251 and in the assay on UACC-257 was > 100 µM (inactive) throughout.

In the case of `O=C1Nc2cccc(Cl)c2/C1=C\c1c(Cl)nc2sccn12`, the GI50 in the assay on A498 is 33.1 µM (inactive); in the assay with CCRF-CEM it was > 100 µM (inactive); in the assay with DU-145, 65 µM (inactive); in the assay on HCT-116, 37.3 µM (inactive); with HOP-62 it was 15 µM (inactive); in the assay on LOX IMVI it was 63.8 µM (inactive). Further, the GI50 in the assay on M14 is 50.2 µM (inactive); in the assay on MOLT-4, > 100 µM (inactive); with Malme-3M it was 76 µM (inactive); in the assay with NCI-H460, > 100 µM (inactive); in the assay on OVCAR-3, > 100 µM (inactive); in the assay with OVCAR-8, 31.1 µM (inactive). Moreover, the GI50 with PC-3 was 64.4 µM (inactive); in the assay with SK-MEL-5 it was > 100 µM (inactive); in the assay on SN12C it was 29.6 µM (inactive); in the assay with SNB-19, 17.6 µM (inactive); in the assay with TK-10, 11.2 µM (inactive); in the assay on U-251 it was 6.03 µM (inactive). Besides, the GI50 in the assay with UACC-257 is > 100 µM (inactive).

Take `O=C1C=CC(=O)c2c1ccc1c3ccccc3n(Cc3ccc([N+](=O)[O-])cc3)c21`: the GI50 in the assay with CCRF-CEM was 10.9 µM (inactive); in the assay on DU-145, > 100 µM (inactive); with HCT-116, > 100 µM (inactive); in the assay on HOP-62, > 100 µM (inactive); in the assay with M14, > 100 µM (inactive); with MOLT-4, 20.3 µM (inactive). In addition, the GI50 in the assay on NCI-H226, in the assay with NCI-H460, with OVCAR-3, in the assay with OVCAR-8, in the assay on PC-3 and with SK-MEL-5 was > 100 µM (inactive) each time. In addition, the GI50 in the assay on SN12C, in the assay on SNB-19, in the assay with TK-10, in the assay with U-251 and with UACC-257 was > 100 µM (inactive) throughout.

In the case of `COc1cc(C2SC(=N)Nc3c2c(C)nn3C(=O)c2ccc(Cl)cc2)ccc1O` (configuration not stated), the GI50 in the assay with CCRF-CEM, with DU-145, in the assay on HCT-116, in the assay with HOP-62, with LOX IMVI and in the assay with M14 was > 10 µM (inactive) throughout. The GI50 in the assay with MOLT-4, with Malme-3M, in the assay with NCI-H226, in the assay with NCI-H460, in the assay with OVCAR-3 and in the assay on OVCAR-8 was > 10 µM (inactive) throughout. The GI50 in the assay with PC-3, with SK-MEL-5, with SN12C, in the assay with SNB-19, in the assay with TK-10 and in the assay with U-251 was > 10 µM (inactive) throughout. In addition, the GI50 with UACC-257 is > 10 µM (inactive).

Regarding `Cc1ccc(C2NC(=N)NC3=C2CCOc2c3ccc3ccccc23)cc1` (configuration not stated), the GI50 was 17.3 µM (inactive) with A498; 0.468 µM (active) with CCRF-CEM; 7.35 µM (inactive) in the assay on DU-145; 1.93 µM (inactive) with HCT-116; 4.94 µM (inactive) with HOP-62; 1.76 µM (inactive) in the assay on M14. In addition, the GI50 is 7.26 µM (inactive) in the assay on MOLT-4; 14.2 µM (inactive) with NCI-H460; 4.92 µM (inactive) in the assay on OVCAR-3; 33.6 µM (inactive) in the assay with OVCAR-8; 21.9 µM (inactive) with PC-3; 12.9 µM (inactive) with SK-MEL-5. Further, the GI50 is 6.38 µM (inactive) with SN12C; 29.6 µM (inactive) in the assay on SNB-19; 29.4 µM (inactive) in the assay with TK-10; 15.9 µM (inactive) in the assay on U-251; 31.3 µM (inactive) in the assay on UACC-257.

For `COC(=O)C1CCC(=O)N1C(c1cc(OC)c(OC)c(OC)c1)c1cc(OC)c(OC)c(OC)c1` (configuration not stated), the GI50 in the assay with A498, in the assay on DU-145, with HCT-116, in the assay with HOP-62, with LOX IMVI and with M14 was > 100 µM (inactive) each time. The GI50 in the assay on MOLT-4, in the assay on NCI-H460, in the assay on OVCAR-3, in the assay on OVCAR-8, in the assay with PC-3 and in the assay on SN12C was > 100 µM (inactive) throughout. Moreover, the GI50 with SNB-19, with TK-10, in the assay on U-251 and with UACC-257 was > 100 µM (inactive) in each case.

For `Cc1ccc(C)c(N2C(=O)C(=O)c3c(C)ccc(C)c32)c1`, the GI50 with DU-145 was 27.7 µM (inactive); in the assay on HCT-116 it was 16.3 µM (inactive); in the assay with HOP-62, 40.6 µM (inactive); with LOX IMVI it was 17.4 µM (inactive); with M14, 17.1 µM (inactive); in the assay with MOLT-4 it was 22.3 µM (inactive). Moreover, the GI50 with Malme-3M was 20.7 µM (inactive); with NCI-H226, 27.7 µM (inactive); in the assay on NCI-H460, 37.2 µM (inactive); in the assay with OVCAR-3 it was 16.3 µM (inactive); in the assay with OVCAR-8 it was 23.8 µM (inactive); in the assay on PC-3, 23 µM (inactive). The GI50 is 14.8 µM (inactive) in the assay on SK-MEL-5; 26.8 µM (inactive) in the assay with SN12C; 40.6 µM (inactive) in the assay with SNB-19; 28.8 µM (inactive) in the assay on TK-10; 17.2 µM (inactive) in the assay with U-251; 24 µM (inactive) in the assay on UACC-257.

For `C/C(=N\NC(=O)c1ccncc1)c1ccccc1F`, the GI50 with A498, in the assay on CCRF-CEM, in the assay on HCT-116, in the assay on HOP-62, with LOX IMVI and in the assay with M14 was > 10 µM (inactive) in each case. The GI50 in the assay with MOLT-4, in the assay with Malme-3M, with NCI-H226, in the assay on NCI-H460, with OVCAR-3 and in the assay on OVCAR-8 was > 10 µM (inactive) throughout. Also, the GI50 with PC-3, with SK-MEL-5, in the assay on SN12C, in the assay on SNB-19, in the assay on TK-10 and in the assay with U-251 was > 10 µM (inactive) each time.
